We go through seven compounds from US11780840B2 (Incyte Corporation, priority 2020, dated 2023).

The structures appear in SMILES notation.

The target in experiment [1] is T1, catalytic domain (JH1, amino acids 826-1132) of human JAK2 (Homo sapiens, UniProt O60674).
T1 construct: catalytic domain (JH1, amino acids 826-1132) of human JAK2; FLAG (N); purchased Carna Biosciences 08-445-20N; host or cells: baculovirus expression system
Description: JAK2 LanthaScreen JH1 Binding Assay. The conditions noted are these: JAK2 JH1 (1.5 nM), 50 nM fluorescent JAK2-JH1 tracer, 2 hours at 25° C.; read-out: JH1 BIND. A digest of the protocol: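 FLAG-tagged, biotinylated JAK2 JH1 (aa 826-1132, baculovirus-expressed; 1.5 nM) incubated 2 h at 25° C with compounds, 50 nM fluorescent tracer and 0.5 nM Streptavidin-Tb in Tris pH 7.5 buffer with MgCl2, Brij-35, BSA, EGTA, glycerol, DTT. Nonspecific binding defined with 2 mM ATP; TR-FRET IC50 from four-parameter fit.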

The target in experiment [2] is T2, pseudo-kinase domain (JH2, amino-acids 536-812 with 3 surface mutations W659A, W777A, F794H) of human Wild Type JAK2 (Homo sapiens, UniProt O60674, F794H/W659A/W777A).
T2 construct: pseudo-kinase domain (JH2, amino-acids 536-812 with 3 surface mutations W659A, W777A, F794H); His (C); Avi (biotinylated) (C); purchased BPS Bioscience 79463; host or cells: baculovirus expression system
Description: JAK2 LanthaScreen JH2-WT Binding Assay. As to conditions: JAK2 JH2-WT (0.145 nM), 50 nM Fluorescent JAK2-JH2 Tracer, 1 hour at 25° C.; read-out: JH2 BIND WT. Put shortly:
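Biotinylated His-Avi-tagged JAK2 JH2 (0.145 nM), baculovirus-expressed, incubated with compounds, 50 nM fluorescent JH2 tracer and 0.25 nM streptavidin-Tb, 1 h at 25° C in pH 7.5 Tris buffer with MgCl2 and DTT. Non-specific binding defined with 2 mM ATP. TR-FRET read; IC50 from four-parameter fit.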
On the technique in general: Time-resolved FRET reads energy transfer from a long-lived donor to a nearby acceptor.

Experiment [3] concerns the target T3, pseudo-kinase domain (JH2, amino-acids 536-812 with 3 surface mutations W659A, W777A, F794H) of human V617F mutant JAK2 (Homo sapiens, UniProt O60674, F794H/V617F/W659A/W777A).
T3 construct: pseudo-kinase domain (JH2, amino-acids 536-812 with 3 surface mutations W659A, W777A, F794H); His (C); Avi (biotinylated) (C); purchased BPS Bioscience 79498; host or cells: baculovirus expression system
Description: JAK2 LanthaScreen JH2-V617F Binding Assay. As to conditions: JAK2 JH2-V617F (0.26 nM), 50 nM Fluorescent JAK2-JH2 Tracer, 1 hour at 25° C.; read-out: JH2 BIND V617F. Put shortly: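 IC50 values came from four-parameter dose-response fits of LanthaScreen signal, read after compounds sat 1 hour at 25° C with 0.26 nM baculovirus-expressed biotinylated protein, 50 nM fluorescent tracer and 0.25 nM streptavidin-Tb cryptate. Non-specific binding was set with 2 mM ATP.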

T1 sequence (O60674 826-1132): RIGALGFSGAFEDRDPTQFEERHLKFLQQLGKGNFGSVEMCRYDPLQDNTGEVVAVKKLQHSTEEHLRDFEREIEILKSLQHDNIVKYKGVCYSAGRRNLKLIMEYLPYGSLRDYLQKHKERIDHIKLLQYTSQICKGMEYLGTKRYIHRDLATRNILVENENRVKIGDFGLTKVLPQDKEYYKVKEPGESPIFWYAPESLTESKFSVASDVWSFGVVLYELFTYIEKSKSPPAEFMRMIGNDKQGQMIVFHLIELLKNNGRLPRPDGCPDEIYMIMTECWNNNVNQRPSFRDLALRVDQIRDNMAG
T2 sequence (O60674 536-812 W659A/W777A/F794H): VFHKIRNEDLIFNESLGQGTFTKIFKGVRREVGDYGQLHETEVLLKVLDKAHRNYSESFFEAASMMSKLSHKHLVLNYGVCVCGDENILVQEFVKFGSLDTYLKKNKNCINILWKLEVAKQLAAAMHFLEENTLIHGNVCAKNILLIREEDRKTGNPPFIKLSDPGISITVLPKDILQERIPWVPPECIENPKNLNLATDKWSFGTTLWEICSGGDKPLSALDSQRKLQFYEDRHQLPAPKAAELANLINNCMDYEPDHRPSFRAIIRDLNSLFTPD
T3 sequence (O60674 536-812 V617F/W659A/W777A/F794H): as the sequence (O60674 536-812 W659A/W777A/F794H) above, with V82F counted along it

Turning to `[2H]C([2H])([2H])n1ncc2cc(-c3c(-c4cn(C)nc4OC)[nH]c4ncc5c(c34)n(C3CCOCC3)c(=O)n5C)ccc21` [Example 109, 7-(3-Methoxy-1-methyl-1H-pyrazol-4-yl)-3-methyl-8-(1-(methyl-d3)-1H-indazol-5-yl)-1-(tetrahydro-2H-pyran-4-yl)-3,6-dihydroimidazo[4,5-d]pyrrolo[2,3-b]pyridin-2(1H)-one], the IC50 is above 1000 nM in experiment [1], at most 10 nM in experiment [2] and at most 10 nM in experiment [3].
In the case of `CC(C)n1c(=O)n(C)c2cnc3[nH]c(-c4ccc(CN5CCC(S(C)(=O)=O)CC5)cc4)c(-c4cnn(Cc5ccc(C(=O)O)cc5)c4)c3c21` [Example 27, 4-((4-(1-Isopropyl-3-methyl-7-(4-((4-(methylsulfonyl)piperidin-1-yl)methyl)phenyl)-2-oxo-1,2,3,6-tetrahydroimidazo [4,5-d]pyrrolo[2,3-b]pyridin-8-yl)-1H-pyrazol-1-yl)methyl)benzoic acid], the results for the IC50 in experiment [1], in experiment [2] and in experiment [3] were 100 to 500 nM, at most 10 nM and at most 10 nM, respectively.
Take `COC1CC=C(c2c(-c3ccc(CN4CCC(S(C)(=O)=O)CC4)cc3)[nH]c3ncc4c(c23)n(C2CCCC2)c(=O)n4C)CC1` (stereo not drawn) [Example 32, 1-Cyclopentyl-8-(4-methoxycyclohex-1-en-1-yl)-3-methyl-7-(4-((4-(methylsulfonyl)piperidin-1-yl)methyl)phenyl)-3,6-dihydroimidazo[4,5-d]pyrrolo[2,3-b] pyridin-2(1H)-one]: the IC50 is 10 to 100 nM in experiment [1], at most 10 nM in experiment [2] and at most 10 nM in experiment [3].
On to `Cn1ncc2cc(-c3c(-c4cnn(CC(C)(C)O)c4)[nH]c4ncc5c(c34)n(C3CCCC3)c(=O)n5C)ccc21` [Example 47, 1-Cyclopentyl-7-(1-(2-hydroxy-2-methylpropyl)-1H-pyrazol-4-yl)-3-methyl-8-(1-methyl-1H-indazol-5-yl)-3,6-dihydroimidazo[4,5-d]pyrrolo[2,3-b]pyridin-2(1H)-one], for which the figures for the IC50 in experiment [1], in experiment [2] and in experiment [3] were 100 to 500 nM, at most 10 nM and at most 10 nM, respectively.
For `CC(C)Oc1ccc(-c2[nH]c3ncc4c(c3c2-c2ccc3c(cnn3C)c2)n(C2CCCC2)c(=O)n4C)cn1` [Example 65, 1-Cyclopentyl-7-(6-isopropoxypyridin-3-yl)-3-methyl-8-(1-methyl-1H-indazol-5-yl)-3,6-dihydroimidazo[4,5-d]pyrrolo[2,3-b]pyridin-2(1H)-one], the IC50 in experiment [1] was above 1000 nM; in experiment [2], 10 to 100 nM; in experiment [3], 10 to 100 nM.
For the compound `COc1ccc(-c2c(-c3ccc(CN4CCC(S(C)(=O)=O)CC4)cc3)[nH]c3ncc4c(c23)n(C)c(=O)n4C)cn1` [Example 35, 8-(6-Methoxypyridin-3-yl)-1,3-dimethyl-7-(4-((4-(methylsulfonyl)piperidin-1-yl)methyl)phenyl)-3,6-dihydroimidazo[4,5-d]pyrrolo[2,3-b]pyridin-2(1H)-one], the results for the IC50 in experiment [1], in experiment [2] and in experiment [3] were above 1000 nM, 100 to 500 nM and 100 to 500 nM, respectively.
For the compound `Cn1c(=O)n(C2CCCC2)c2c3c(-c4ccccc4)c(-c4ccc(CN5CCC(S(C)(=O)=O)CC5)cc4)[nH]c3ncc21` [Example 28, 1-Cyclopentyl-3-methyl-7-(4-((4-(methylsulfonyl)piperidin-1-yl)methyl)phenyl)-8-phenyl-3,6-dihydroimidazo[4,5-d]pyrrolo[2,3-b]pyridin-2(1H)-one], the IC50 in experiment [1] was 100 to 500 nM; in experiment [2], at most 10 nM; in experiment [3], at most 10 nM.
